This passage reports inhibition, Inhibition and inhibition in vivo results from ChEMBL document CHEMBL1125860 (J Med Chem, 1991).

In test [1] the test system is Rattus norvegicus. The test can be described thus: In vivo inhibition of galactitol accumulation in diaphragm of rat at 53 mg/kg/day; Not significant. The test is classed as functional, organism-based.
The test system of test [2] is Rattus norvegicus. The test can be described thus: In vivo inhibition of galactitol accumulation in sciatic nerves of rat at 53 mg/kg/day; Not significant. The note with it: Sciatic nerve. The class given is functional, organism-based.
The target of test [3] is Aldo-keto reductase family 1 member B1 (Bos taurus) (UniProt P16116). As to the kind of experiment: In vitro % decrease of aldose reductase measured in isolated partially purified bovine lens preparations at 10e-7 M concentration.
The species entered for test [4] is Rattus norvegicus. As to the kind of experiment: In vitro inhibition of sorbitol accumulation was measured in rat sciatic nerves incubated in the presence of 50 mM glucose at 10e-6 M concentration. The class given is functional, Sciatic nerve.
For test [5], the species on record is Rattus norvegicus. As to the kind of experiment: In vitro inhibition of sorbitol accumulation was measured in rat sciatic nerves incubated in the presence of 50 mM glucose at 10e-5 M concentration. The test is classed as functional, Sciatic nerve.
Test [6] deals with Rattus norvegicus. The test can be described thus: In vivo inhibition of galactitol accumulation in sciatic nerves of rat at 25 mg/kg/day. The class given is functional. Conditions: Sciatic nerve.
Test [7] deals with Rattus norvegicus. The test can be described thus: In vivo inhibition of galactitol accumulation in diaphragm of rat at 18 mg/kg/day. The class given is functional.
Test [8] deals with Rattus norvegicus. The test can be described thus: In vivo inhibition of galactitol accumulation in diaphragm of rat at 25 mg/kg/day. The class given is functional.
Test [9] concerns Rattus norvegicus. The test can be described thus: In vivo inhibition of galactitol accumulation in sciatic nerves of rat at 18 mg/kg. The class given is functional. Conditions: Sciatic nerve.
In test [10] the test system is Rattus norvegicus. The test can be described thus: In vivo inhibition of galactitol accumulation in diaphragm of rat at 47 mg/kg/day; Not significant. The class given is functional, organism-based.
For test [11], the target named is Aldo-keto reductase family 1 member B1 (Bos taurus) (UniProt P16116). The test can be described thus: In vitro % decrease of aldose reductase was measured in isolated partially purified bovine lens preparations at 10e-6 M concentration.
In test [12] the test system is Rattus norvegicus. As to the kind of experiment: In vivo inhibition of galactitol accumulation in sciatic nerves of rat at 47 mg/kg/day; Not significant. The class given is functional, organism-based. Conditions: Sciatic nerve.
Test [13] concerns Rattus norvegicus. As to the kind of experiment: In vivo inhibition of galactitol accumulation in diaphragm of rat at 105 mg/kg/day. The test is classed as functional.
For test [14], the system named is Rattus norvegicus. As to the kind of experiment: In vivo inhibition of galactitol accumulation in sciatic nerves of rat at 10 mg/kg/day. The test is classed as functional. The note with it: Sciatic nerve.
Test [15] relates to Rattus norvegicus. As to the kind of experiment: In vivo inhibition of galactitol accumulation in sciatic nerves of rat at 105 mg/kg/day; Not significant. The note with it: Sciatic nerve. The class given is functional, organism-based.
The test system of test [16] is Rattus norvegicus. As to the kind of experiment: In vivo inhibition of galactitol accumulation in diaphragm of rat at 10 mg/kg/day. The test is classed as functional.
Test [17] concerns Rattus norvegicus. The test can be described thus: In vivo inhibition of galactitol accumulation in diaphragm of rat at 49 mg/kg/day. The test is classed as functional.
In test [18] the test system is Rattus norvegicus. As to the kind of experiment: In vivo inhibition of galactitol accumulation in sciatic nerves of rat at 49 mg/kg/day; Not significant. The test is classed as functional, organism-based. Conditions: Sciatic nerve.
Test [19] deals with Rattus norvegicus. As to the kind of experiment: In vivo inhibition of galactitol accumulation in diaphragm of rat at 25 mg/kg/day; […]. The test is classed as functional, organism-based.
Test [20] relates to Rattus norvegicus. As to the kind of experiment: In vivo inhibition of galactitol accumulation in sciatic nerves of rat at 25 mg/kg/day; Not significant. The test is classed as functional, organism-based. Conditions: Sciatic nerve.
The target in test [21] is Aldo-keto reductase family 1 member B1 (Bos taurus) (UniProt P16116). As to the kind of experiment: In vitro % decrease of aldose reductase was measured in isolated partially purified bovine lens preparations at 10e-7 M concentration; Not active.
Test [22] concerns Rattus norvegicus. As to the kind of experiment: In vivo inhibition of galactitol accumulation in sciatic nerves of rat at 24 mg/kg/day. The test is classed as functional. Conditions: Sciatic nerve.
The subject of test [23] is Rattus norvegicus. As to the kind of experiment: In vivo inhibition of galactitol accumulation in diaphragm of rat at 50 mg/kg. The test is classed as functional.
Test [24] concerns Rattus norvegicus. The test can be described thus: In vivo inhibition of galactitol accumulation in sciatic nerves of rat at 50 mg/kg/day. The test is classed as functional. The note with it: Sciatic nerve.
Test [25] has as its system Rattus norvegicus. As to the kind of experiment: In vivo inhibition of galactitol accumulation in diaphragm of rat at 24 mg/kg/day. The test is classed as functional.
In test [26] the test system is Rattus norvegicus. As to the kind of experiment: In vivo inhibition of galactitol accumulation in diaphragm of rat at 43 mg/kg/day; Not significant. The class given is functional, organism-based.
The test system of test [27] is Rattus norvegicus. The test can be described thus: In vivo inhibition of galactitol accumulation in sciatic nerves of rat at 43 mg/kg/day; Not significant. The class given is functional, organism-based. Conditions: Sciatic nerve.
Test [28] deals with Rattus norvegicus. As to the kind of experiment: In vivo inhibition of galactitol accumulation in sciatic nerves at 5 mg/kg/day; Not significant. The class given is functional, organism-based. Conditions: Sciatic nerve.

Active and inactive are the calls of the source. The calls are words filed in the database; no cut-off is given here.

For `COc1ccc2c(C(F)(F)F)c(OC)ccc2c1C(=O)N(C)CC(=O)O`, the inhibition result in the test with Rattus norvegicus [1] and in the test on Rattus norvegicus [2] was “inactive” each time. Also, in [3], the inhibition was found to be 62%. The Inhibition in the test filed under Rattus norvegicus [4] turned out to be 33%; in the test filed under Rattus norvegicus [5], 48%.

For `COc1ccc2c(C(=S)N(C)CC(=O)O)cccc2c1Br`, the inhibition in vivo at 25 mg/kg/day with Rattus norvegicus [6] came out at 64%; with Rattus norvegicus [8], 90%. Further, the inhibition in [3] is 72%. The compound also returned an inhibition in vivo at 18 mg/kg/day in the test on Rattus norvegicus [7] of 88%. For the same compound, the inhibition in vivo at 18 mg/kg in the test on Rattus norvegicus [9] is 39%.

As to `COc1ccc2c(C(=O)N(C)CC(=O)O)c(C(C)(C)C)ccc2c1C(F)(F)F`, the inhibition in test [3] is 6%; in [11], 23%. Further, the inhibition entry in the test on Rattus norvegicus [10] and in the test on Rattus norvegicus [12] was “inactive” throughout.

For the compound `COc1c(C)cc2c(C(=S)N(C)CC(=O)O)cccc2c1Br`, the inhibition in vivo at 105 mg/kg/day with Rattus norvegicus [13] worked out at 34%. The compound also came in with an inhibition in test [3] of 8%. In addition, the values for the inhibition in vivo at 10 mg/kg/day in the test with Rattus norvegicus [14] and in the test on Rattus norvegicus [16] were 54% and 87%, respectively. Further, the inhibition entry with Rattus norvegicus [15] is “inactive”.

In test [3], `CCCCOc1ccc2c(C(F)(F)F)c(OC)ccc2c1C(=O)N(C)CC(=O)O` yielded an inhibition of 42%. The same compound came in with an inhibition in vivo at 49 mg/kg/day in the test on Rattus norvegicus [17] of 55%. In addition, in the test with Rattus norvegicus [18], the inhibition result was “inactive”.

In the case of `COc1ccc2c(C(=O)N(C)CC(N)=O)c(OCC(F)(F)F)ccc2c1C(F)(F)F`, the inhibition entry (in the test with Rattus norvegicus [19]; in the test on Rattus norvegicus [20]; in [21]) was “inactive” in each case.

In the case of `COc1ccc2c(C(=O)N(C)CC(=O)O)c(OCC(F)(F)F)ccc2c1C(F)(F)F`, the inhibition in vivo at 24 mg/kg/day was 37% in the test with Rattus norvegicus [22] and 65% in the test on Rattus norvegicus [25]. Testing at 50 mg/kg in the test with Rattus norvegicus [23] gave an inhibition in vivo of 82%. This compound also returned an inhibition in test [3] of 67%. This compound also showed an inhibition in vivo at 50 mg/kg/day in the test with Rattus norvegicus [24] of 79%. The values for the Inhibition in the test filed under Rattus norvegicus [4] and in the test filed under Rattus norvegicus [5] were 31% and 57%, respectively.

As to `CCOC(=O)N(CC(=O)O)C(=O)c1c(Br)ccc2c(C(F)(F)F)c(OC)ccc12`, in test [3], the inhibition was found to be 76%. For the same compound, the inhibition entry in the test with Rattus norvegicus [26] and in the test on Rattus norvegicus [27] was “inactive” each time. Moreover, the results for the Inhibition in the test listed under Rattus norvegicus [4] and in the test filed under Rattus norvegicus [5] were 52% and 73%, respectively.

For `COc1ccc2c(C(=S)N(C)CC(=O)O)c(F)ccc2c1C(F)(F)F`, the inhibition in vivo at 25 mg/kg/day was 92% in the test on Rattus norvegicus [6] and 93% with Rattus norvegicus [8]. In the test on Rattus norvegicus [28], the inhibition entry is “inactive”.
